Read-outs that look alike come from different tables or passages of the source. Numbered stars: 1 amine (or outer) side, 2 acyl side, 3 side chain; on linkers, the order of the positions; unused ones are H or OH. Square brackets hold non-standard residues; d marks the D form. Side chains are listed from the residue outwards. Peptide text beside a SMILES is read from it. * marks the point of attachment. Biotin = O=C1N[C@H]2[C@H](CS[C@H]2CCCCC(=O)*)N1; C18 diacid = O=C(O)CCCCCCCCCCCCCCCCC(=O)*; γGlu = O=C(O)[C@H](CCC(=O)[*:2])N[*:1]; AEEA = NCCOCCOCC(=O)O; Aib = CC(C)(N)C(=O)O
Key:
human GLP-1R = target: T1, human GLP-1R (Homo sapiens, UniProt P43220); test: cAMP assay (HitHunter cAMP) in GLP-1R-expressing CHO-K1 cells (GLP-1R+ cells); format: cell-based; settings: Table 31
T1 construct: host or cells: CHO-K1
In short: (§1)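 CHO-K1 cells expressing each receptor were plated overnight, then treated with peptide in cAMP assay buffer for 30 min at 37 °C. cAMP was detected by antibody plus detection solution (1 h) and Solution A (3 h), both at room temperature in the dark. Luminescence was the read-out.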

human GCGR = target: T2, human GCGR (Homo sapiens, UniProt P47871); test: cAMP assay (HitHunter cAMP) in GCGR-expressing CHO-K1 cells (GCGR+ cells); format: cell-based; settings: Table 31
T2 construct: host or cells: CHO-K1
In short: as §1

human GIPR = target: T3, human GIPR (Homo sapiens, UniProt P48546); test: cAMP assay (HitHunter cAMP) in GIPR-expressing CHO-K1 cells (GIPR+ cells); format: cell-based; settings: Table 31
T3 construct: host or cells: CHO-K1
T3 sequence (P48546 22-466): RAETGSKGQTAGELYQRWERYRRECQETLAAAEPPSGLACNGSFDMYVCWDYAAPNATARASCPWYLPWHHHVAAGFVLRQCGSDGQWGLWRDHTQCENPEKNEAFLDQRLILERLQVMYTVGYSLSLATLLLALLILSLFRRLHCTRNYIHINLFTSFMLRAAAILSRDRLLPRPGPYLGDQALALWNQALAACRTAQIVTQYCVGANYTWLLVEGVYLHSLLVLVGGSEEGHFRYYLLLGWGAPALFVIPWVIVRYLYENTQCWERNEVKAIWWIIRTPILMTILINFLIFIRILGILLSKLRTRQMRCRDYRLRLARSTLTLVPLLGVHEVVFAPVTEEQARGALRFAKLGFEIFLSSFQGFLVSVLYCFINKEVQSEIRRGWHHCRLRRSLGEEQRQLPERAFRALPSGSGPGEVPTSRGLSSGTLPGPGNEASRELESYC
In short: as §1

[1] = Body weight loss in high fat diet (HFD) mice, 2 weeks; format: in vivo; settings: 20 nmol/kg s.c. Q2D
Experimental: This study was conducted to confirm the body weight loss effect and select the peptides to be evaluated in high fat diet (HFD) treated mouse, which is widely used as experimental animal model in obesity and diabetes studies. SEQ ID NOs. The peptides were delivered at 0.02% PS80 in PBS and dosing volume was 10 mL/kg. Body weight changes, blood glucose, and food intake were monitored Q2D. Animals were fasted at least 4 hours prior to blood glucose measurement.

[2] = In vitro enzymatic stability against FaSSIF/P (pancreatin in FaSSIF, pH 6.5); format: in vitro ADME; settings: simulated gi fluid
Experimental: (§2) This study was conducted to determine the enzymatic stability of SEQ ID NOs. 77, 86, 87, 89, 90, and 91 after biotinylation in artificial intestinal environment. The test samples were prepared by mixing stock solutions of peptide and pancreatin dissolved in FaSSIF solution (pH 6.5) in a weight ratio of 25:1. The test samples were incubated at 37° C. for 120 min. The sampling from test samples was proceeded at the predetermined time points (10, 30, 60, and 120 min) and stopped by 10% TFA solution.
(§3) Analytical HPLC was performed to determine the remaining amount on an ACQUITY Premier system (Waters, USA) with an ACQUITY CSH C18 column (Waters, USA) at 35° C. using 0.1% TFA in water and acetonitrile. The remaining amount was determined as a percentage of the peak area at the sampling time point relative to the peak area of the initial sample.
(§4) For the stability against FaSSIF/P, the test samples were prepared by mixing stock solutions of peptide and pancreatin dissolved in FaSSIF solution (pH 6.5) in a weight ratio of 19:1. The test samples were incubated at 37° C. for 120 min. The sampling from test samples was proceeded at the predetermined time points (10, 30, 60, and 120 min) and stopped by 10% TFA solution.

FaSSIF/P = test: as above; format: in vitro ADME
Experimental: as §2, §3, §4

[3] = In vivo efficacy in mAMLN (obese and NASH) mice, 4 weeks; settings: after 4 weeks
[4] = Intestinal absorption / PK after intraduodenal administration of oral formulation in rats, serum LC-MS/MS; settings: rat, in vivo
Experimental: This study was conducted to evaluate the intestinal absorption of peptides following enteral administration of oral pharmaceutical formulations. The pharmaceutical formulation was administered in a form of suspensions by intraduodenal (ID) injection in rats. SEQ ID_87, 89 and 90 was accurately weighed and dissolved in 10 mM PBS containing polysorbate 80 (pH 7.4, vehicle I). The mixture was vortexed for 5 min to get a clear solution. Then, 2.5 mL of vehicle was added to the mixture and vortexed for 30 min to get homogenous opaque suspension. The composition of Vehicle II was sodium chenodeoxycholate, and propyl gallate in polysorbate 80 in PBS. The animals were not fasted prior to dosing. 0.2˜ 0.4 mL of whole blood was taken from vein at each time point (0, 0.167, 0.5, 1, 2, 4, 8, 24, and 48 hrs after IV or ID administration). The collected whole blood was incubated at room temperature for 20 min and tubes were centrifugated at 13,000 rpm for 10 min at 4° C. The resulting serum 0.1˜ 0.2 mL was transferred into the tube and stored at −70° C. until analysis. The concentrations of peptides in serum were determined by LC-MS/MS analysis. PK parameters were analyzed by non-compartmental analysis using Phoenix WinNonlin 5.0.1. software (Pharsight Corporation, Mountain View, CA, USA).

T1 sequence (P43220 24-463): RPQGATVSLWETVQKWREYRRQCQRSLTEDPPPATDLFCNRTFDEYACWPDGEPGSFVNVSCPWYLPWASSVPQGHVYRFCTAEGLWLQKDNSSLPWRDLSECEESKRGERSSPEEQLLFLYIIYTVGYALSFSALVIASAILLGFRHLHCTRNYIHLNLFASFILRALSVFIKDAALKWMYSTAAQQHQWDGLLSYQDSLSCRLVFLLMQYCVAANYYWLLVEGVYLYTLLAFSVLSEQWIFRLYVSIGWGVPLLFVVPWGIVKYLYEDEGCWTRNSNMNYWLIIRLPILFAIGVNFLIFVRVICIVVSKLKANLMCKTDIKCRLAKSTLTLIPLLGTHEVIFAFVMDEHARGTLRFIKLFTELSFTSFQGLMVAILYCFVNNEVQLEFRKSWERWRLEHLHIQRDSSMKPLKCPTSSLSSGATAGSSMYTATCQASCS
T2 sequence (P47871 26-477): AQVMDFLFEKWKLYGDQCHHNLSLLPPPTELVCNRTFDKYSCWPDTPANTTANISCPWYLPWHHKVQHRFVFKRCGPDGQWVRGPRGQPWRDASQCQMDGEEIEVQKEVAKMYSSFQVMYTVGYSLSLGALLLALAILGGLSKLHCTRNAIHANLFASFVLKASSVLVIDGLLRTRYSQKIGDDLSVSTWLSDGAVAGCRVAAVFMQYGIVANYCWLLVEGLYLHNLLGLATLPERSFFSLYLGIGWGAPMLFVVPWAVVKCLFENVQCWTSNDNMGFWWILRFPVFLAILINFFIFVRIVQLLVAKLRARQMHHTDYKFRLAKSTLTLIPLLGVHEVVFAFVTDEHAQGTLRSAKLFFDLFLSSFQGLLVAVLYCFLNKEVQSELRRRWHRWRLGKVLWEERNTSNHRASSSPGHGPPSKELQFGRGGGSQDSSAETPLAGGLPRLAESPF

Structure (SMILES) | Ratio vs. GLP-1R, GLP-1R (human GLP-1R) | Relative % to native ligand, GLP-1R (human GLP-1R) [%] | Ratio vs. GLP-1R, GCGR (human GCGR) | Relative % to native ligand, GCGR (human GCGR) [%] | Ratio vs. GLP-1R, GIPR (human GIPR) | Relative % to native ligand, GIPR (human GIPR) [%] | body weight loss effect compared to SEQ ID NO. 77, in words [1] | half-life ([2]; pH 6.5, Table 33, peptide:pancreatin weight ratio 25:1, FaSSIF pH 6.5, 37° C., read-out: Half-life) [min] | intestinal stability in FaSSIF/P compared with SEQ ID NO. 77, in words (FaSSIF/P; Example 11) | hepatic steatosis (histological score), in words [3] | AUC(0-inf) ([4]; rats, single intraduodenal (ID) administration, read-out: AUCinf) [ng·h/mL] | Cmax ([4]; rats, single intraduodenal (ID) administration, read-out: mean Cmax) [ng/mL] | half-life ([4]; rats, single intraduodenal (ID) administration, read-out: t1/2 (converted)) [min] | half-life ([2]; pH 6.5, Half-life (min)) [min] | intestinal stability in FaSSIF/P compared with SEQ ID NO. 77, in words (FaSSIF/P) | AUC(0-inf) [4] [ng·h/mL] | Cmax [4] [ng/mL] | half-life [4] [min] | time at which Cmax was reached [4] [h]
CSCC[C@H](NC(=O)[C@H](Cc1ccc(O)cc1)NC(=O)[C@H](CC(=O)O)NC(=O)[C@H](CC(C)C)NC(=O)[C@H](CC(C)C)NC(=O)[C@H](CCCCNC(=O)COCCOCCNC(=O)COCCOCCNC(=O)CC[C@H](NC(=O)CCCCCCCCCCCCCCCCC(=O)O)C(=O)O)NC(=O)[C@H](CO)NC(=O)[C@H](Cc1ccc(O)cc1)NC(=O)[C@H](CC(=O)O)NC(=O)[C@H](CO)NC(=O)[C@@H](NC(=O)[C@H](Cc1ccccc1)NC(=O)[C@@H](NC(=O)CNC(=O)[C@H](CCC(N)=O)NC(=O)C(C)(C)NC(=O)[C@@H](N)Cc1ccc(O)cc1)[C@@H](C)O)[C@@H](C)O)C(=O)N[C@@H](CCSC)C(=O)N[C@@H](CCC(N)=O)C(=O)N[C@@H](CCCNC(=N)N)C(=O)N[C@@H](CC(=O)O)C(=O)N[C@@H](Cc1ccccc1)C(=O)N[C@H](C(=O)N[C@@H](CCCCNC(=O)CCCC[C@@H]1SC[C@@H]2NC(=O)N[C@@H]21)C(=O)N[C@@H](Cc1c[nH]c2ccccc12)C(=O)N[C@@H](CC(C)C)C(=O)N[C@@H](CC(C)C)C(=O)N[C@@H](CCC(=O)O)C(=O)NCC(=O)NCC(=O)N1CCC[C@H]1C(=O)N[C@@H](CO)C(=O)N[C@@H](CO)C(=O)NCC(=O)N[C@@H](C)C(=O)N1CCC[C@H]1C(=O)N1CCC[C@H]1C(=O)N1CCC[C@H]1C(=O)N[C@@H](CO)C(N)=O)C(C)C [compound 89] (H-Y[Aib]QGTFTSDYSK([AEEA-AEEA-γGlu-C18 diacid])LLDYMMQRDFVK(Biotin)WLLEGGPSSGAPPPS-NH2; N-terminus and C-terminus assumed) | 100 | 38 | 117 | 45 | 399 | 154 | comparable to SEQ ID NO. 77 | 43 | not inferior to that of SEQ ID No. 77 | significantly reduced | 2790 | 332 | 434 |  |  |  |  |  | 
CSCC[C@H](NC(=O)[C@H](Cc1ccc(O)cc1)NC(=O)[C@H](CC(=O)O)NC(=O)[C@H](CC(C)C)NC(=O)[C@H](CC(C)C)NC(=O)[C@H](CCCCNC(=O)COCCOCCNC(=O)COCCOCCNC(=O)CC[C@H](NC(=O)CCCCCCCCCCCCCCCCC(=O)O)C(=O)O)NC(=O)[C@H](CO)NC(=O)[C@H](Cc1ccc(O)cc1)NC(=O)[C@H](CC(=O)O)NC(=O)[C@H](CO)NC(=O)[C@@H](NC(=O)[C@H](Cc1ccccc1)NC(=O)[C@@H](NC(=O)CNC(=O)[C@H](CCC(N)=O)NC(=O)C(C)(C)NC(=O)[C@@H](N)Cc1ccc(O)cc1)[C@@H](C)O)[C@@H](C)O)C(=O)N[C@@H](CCSC)C(=O)N[C@@H](CCC(N)=O)C(=O)N[C@@H](CCCNC(=N)N)C(=O)N[C@@H](CC(=O)O)C(=O)N[C@@H](Cc1ccccc1)C(=O)N[C@H](C(=O)N[C@@H](CCC(N)=O)C(=O)N[C@@H](Cc1c[nH]c2ccccc12)C(=O)N[C@@H](CC(C)C)C(=O)N[C@@H](CC(C)C)C(=O)N[C@@H](CCC(=O)O)C(=O)NCC(=O)NCC(=O)N1CCC[C@H]1C(=O)N[C@@H](CO)C(=O)N[C@@H](CO)C(=O)NCC(=O)N[C@@H](C)C(=O)N1CCC[C@H]1C(=O)N1CCC[C@H]1C(=O)N1CCC[C@H]1C(=O)N[C@@H](CO)C(=O)N[C@@H](CCCCNC(=O)CCCC[C@@H]1SC[C@@H]2NC(=O)N[C@@H]21)C(N)=O)C(C)C [compound 90] (H-Y[Aib]QGTFTSDYSK([AEEA-AEEA-γGlu-C18 diacid])LLDYMMQRDFVQWLLEGGPSSGAPPPSK(Biotin)-NH2; N-terminus and C-terminus assumed) | 100 | 50 | 39 | 19 | 311 | 154 | comparable to SEQ ID NO. 77 |  |  |  |  |  |  | 42.1 | not inferior to that of SEQ ID No. 77 | 2490 | 282 | 502 | 0.30
